From publication PMC5919439, “Isolation and molecular characterization of novel glucarpidases: Enzymes to improve the antibody directed enzyme pro-drug therapy for cancer treatment” (PLoS ONE, 2018)

Target: Ps CPG2 (Pseudomonas sp. RS-16, UniProt P06621)
Experiment: decrease in absorbance at […] nm, plate reader, initial rates
Type: biochemical
Details: 0.1 M Tris-HCl pH 7.3, 0.2 mM ZnSO4, 37°C, 0.03-0.42 mM MTX; apparent Km

Ps CPG2, sequence (P06621 23-415): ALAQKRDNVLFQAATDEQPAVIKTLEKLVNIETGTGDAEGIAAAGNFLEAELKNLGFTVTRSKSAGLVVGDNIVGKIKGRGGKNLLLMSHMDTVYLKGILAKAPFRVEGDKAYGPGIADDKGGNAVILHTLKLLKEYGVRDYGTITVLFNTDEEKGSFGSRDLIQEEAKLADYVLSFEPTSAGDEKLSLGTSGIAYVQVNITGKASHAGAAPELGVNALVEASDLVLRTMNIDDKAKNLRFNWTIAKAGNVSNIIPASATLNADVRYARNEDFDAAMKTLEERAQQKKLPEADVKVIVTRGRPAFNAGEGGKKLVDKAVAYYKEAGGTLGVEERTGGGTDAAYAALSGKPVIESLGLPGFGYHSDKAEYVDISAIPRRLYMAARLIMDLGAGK

CN(Cc1cnc2nc(N)nc(N)c2n1)c1ccc(C(=O)N[C@@H](CCC(=O)O)C(=O)O)cc1 [methotrexate]
Km: 172 µM
